Source: article PMC11801377, “A uniquely efficacious type of CFTR corrector with complementary mode of action” (Science Advances, 2024)

Molecular target: T1, F508del-CFTR-G550E.R553M.R555K (3TS) (Homo sapiens, UniProt P13569, DEL508-508/G550E/R553M/R555K)
T1 construct: expressed in transfected cells; host or cells: T-REx HEK293
Assay: CFTR immunoblotting in HEK-TREx cells expressing thermostabilized F508del-CFTR (3TS)
Type: cell-based
Settings: 48 hours, IDOR-3 2 μM, IDOR-4 0.4 μM, TEZ 2 μM, ELX 0.4 μM
From the text: The human CFTR expressing HEK cell pools with the mutations described below were generated by integrase-mediated homologous recombination of the CFTR sequence into the T-REx HEK293 background (Thermo Fisher Scientific). This expression system allows the tetracycline-inducible expression of genes of interest from one defined insertion site. Parental T-REx-HEK293 cells were cultivated in growth medium: Dulbecco’s modified Eagle’s medium + GlutaMAX-I (#31966, Life Technologies), 10% dialyzed FBS (Gibco, #26400), penicillin (100 U/ml), streptomycin (100 μg/ml), hygromycin B (0.1 mg/ml; Life Technologies), blasticidin (5 μg/ml; Invitrogen, #R210-01), and 0.1 mM nonessential amino acid solution (Invitrogen, #11140-035). Recombinant T-REx-HEK-CFTR cells were generated by lipofectamine transfection (Life Technologies) of plasmids containing mutated versions of CFTR (RefSeq NM_000492) and then cultivated in selection medium [growth medium containing Geneticin (1 mg/ml) (Invitrogen, #10131-027) instead of hygromycin]. The plasmid constructs were synthetized by GENEART (Thermo Fisher Scientific) and designed with the WT CFTR intron 5 to 6 (880 nucleotides) to prevent leaky expression issues during the cloning process in bacteria. For evaluation of corrector efficacies on second-site suppressor mutants, the following mutations were introduced into the CFTR.F508del gene sequence: G550E.R553M.R555K and G550E.R553M.R555K.R1070W. The following plasmids expressing different truncated versions of CFTR.F508del gene were generated: K381X, delF508-M837X, delF508-E1172X, and M837-L1480. For the evaluation of different binding sites by site-directed mutagenesis, the following mutations were introduced individually into the CFTR.F508del gene: del14-21, K14A, K14A.R80V, K14A.Y84F, L15W, R1102A, and L195W. Deletion of the peptide stretching amino acids 14 to 21 was also introduced into truncated K381X: del14-21.K381X. […]

T1 sequence (P13569 with tags, fused parts or gaps DEL508-508/G550E/R553M/R555K): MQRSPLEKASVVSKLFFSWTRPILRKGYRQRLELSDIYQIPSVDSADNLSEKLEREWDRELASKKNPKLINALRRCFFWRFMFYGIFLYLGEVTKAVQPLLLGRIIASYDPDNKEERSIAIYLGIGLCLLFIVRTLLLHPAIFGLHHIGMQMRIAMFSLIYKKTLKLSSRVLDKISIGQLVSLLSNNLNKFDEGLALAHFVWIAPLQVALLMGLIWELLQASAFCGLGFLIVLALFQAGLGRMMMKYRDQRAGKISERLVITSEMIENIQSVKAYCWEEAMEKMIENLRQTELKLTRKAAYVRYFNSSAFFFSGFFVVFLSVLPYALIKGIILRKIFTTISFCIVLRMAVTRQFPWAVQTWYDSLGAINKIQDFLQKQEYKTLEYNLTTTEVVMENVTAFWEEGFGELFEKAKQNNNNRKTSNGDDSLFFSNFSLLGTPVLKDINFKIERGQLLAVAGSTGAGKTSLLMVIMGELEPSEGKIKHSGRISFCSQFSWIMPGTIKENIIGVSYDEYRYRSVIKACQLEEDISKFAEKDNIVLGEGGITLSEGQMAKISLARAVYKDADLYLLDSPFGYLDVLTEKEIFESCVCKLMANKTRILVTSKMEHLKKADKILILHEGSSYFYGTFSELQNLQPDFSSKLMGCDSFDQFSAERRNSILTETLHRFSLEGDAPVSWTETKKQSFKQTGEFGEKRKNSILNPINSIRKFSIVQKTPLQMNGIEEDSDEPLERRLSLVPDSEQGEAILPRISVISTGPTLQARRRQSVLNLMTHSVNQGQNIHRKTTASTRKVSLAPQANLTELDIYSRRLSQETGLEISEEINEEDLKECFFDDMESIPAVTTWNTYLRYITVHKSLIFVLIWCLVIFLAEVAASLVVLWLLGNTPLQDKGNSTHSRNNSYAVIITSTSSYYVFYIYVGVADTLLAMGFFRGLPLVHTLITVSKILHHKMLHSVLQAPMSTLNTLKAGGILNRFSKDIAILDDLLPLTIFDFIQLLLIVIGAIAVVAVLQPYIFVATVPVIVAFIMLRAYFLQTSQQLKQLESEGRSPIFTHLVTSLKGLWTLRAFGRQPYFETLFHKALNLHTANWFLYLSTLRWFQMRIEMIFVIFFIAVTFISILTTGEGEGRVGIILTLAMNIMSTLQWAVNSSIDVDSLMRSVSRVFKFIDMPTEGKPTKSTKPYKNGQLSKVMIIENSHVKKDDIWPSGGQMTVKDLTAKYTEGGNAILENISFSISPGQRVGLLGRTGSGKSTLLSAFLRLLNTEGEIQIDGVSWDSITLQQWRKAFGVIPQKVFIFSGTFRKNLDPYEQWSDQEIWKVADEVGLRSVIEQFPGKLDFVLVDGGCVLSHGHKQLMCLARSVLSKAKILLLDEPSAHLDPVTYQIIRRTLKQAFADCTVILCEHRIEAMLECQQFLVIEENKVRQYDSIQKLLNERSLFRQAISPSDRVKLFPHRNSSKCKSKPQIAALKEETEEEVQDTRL

Structure (SMILES): Cc1nn(C)cc1S(=O)(=O)NC(=O)c1ccc(-n2ccc(OCC(C)(C)C(F)(F)F)n2)nc1N1C[C@@H](C)CC1(C)C [ELX, elexacaftor]
- improvement of C-band expression after introduction of 3TS mutations: ~ 4 fold

Structure (SMILES): COc1cc(CCNC(=O)C2CC(=O)N(C)C(CC(C)C)C(=O)N3CCCCC3C(=O)NC(Cc3ccccc3)COc3ccc4ncc(F)cc4c3C(=O)N2)on1 (stereo not drawn) [IDOR-3]
- improvement of C-band expression after introduction of 3TS mutations: ~ 1.5 fold

Structure (SMILES): CC(C)(CO)c1cc2cc(NC(=O)C3(c4ccc5c(c4)OC(F)(F)O5)CC3)c(F)cc2n1C[C@@H](O)CO [TEZ, tezacaftor]
- improvement of C-band expression after introduction of 3TS mutations: ~ 4 fold
